{
  "source": "patent US20100137346A1",
  "about": "“DESFE[…] ACTINIDE DEC[…]” (priority 2006, published 2010)",
  "key": {"[1]": {"experiment": "Iron-clearing efficiency (ICE) in iron-overloaded Cebus apella primate", "assay_type": "in vivo", "details": "orally to C. apella primates, 150 μmol/kg", "experimental": "In the text below, “iron-clearing efficiency” (ICE) [Bergeron, et al., Effects of C-4 Stereochemistry and C-4′ Hydroxylation on the Iron Clearing Efficiency and Toxicity of Desferrithiocin Analogues, J Med Chem 1999; 42:2432-2440] is used as a measure of the amount of iron excretion induced by a chelator. The ICE, expressed as a percent, is calculated as (ligand-induced iron excretion/theoretical iron excretion)×100. To illustrate, the theoretical iron excretion after administration of one millimole of desferrioxamine (DFO, 14, Table 1), a hexadentate chelator which forms a 1:1 complex with Fe(III), is one milli-g-atom of iron. Two millimoles of desferrithiocin (DFT, 1, FIG. 1), a tridentate chelator which forms a 2:1 complex with Fe(III), are required for the theoretical excretion of one milli-g-atom of iron. In clinical practice, the actual ICE of DFO (14), used to treat people with iron overload, is only 5 to 7% [Pippard, et al., Iron Chelation Using Subcutaneous Infusions of Diethylene Triamine Penta-acetic Acid (DTPA), Scand J Haematol 1986; 36:466-472; Pippard, Desferrioxamine-Induced Iron Excretion in Humans, Bailliere's Clin Haematol 1989; 2:323-343]. […]"}, "[2]": {"experiment": "Chelator-induced uranium excretion (urine + bile, 24 h) in bile duct-cannulated rat model", "assay_type": "in vivo", "procedure,_shortened": "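Bile duct-cannulated rats received uranyl acetate dihydrate subcutaneously at 5 mg/kg, equal to 2.8 mg/kg uranium, and were then given a chelator. Urine and bile were collected for 24 hours and uranium was quantified by ICPMS. Results give total uranium excreted (urine + bile), the urine/bile split, the percentage of the administered dose cleared, and excretion relative to 14 pooled uranyl acetate-only controls. Each group had at least three animals.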"}, "[3]": {"details": "cited from earlier work"}, "[4]": {"details": "cited from earlier work", "remark": "listed apart in the source"}, "[5]": {"details": "rodents; cited from earlier work"}, "[6]": {"details": "bile duct-cannulated rodent model; cited from earlier work"}, "[7]": {"details": "in vivo; cited from earlier work"}, "[8]": {"experiment": "Renal uranium content in uranyl acetate-treated bile duct-cannulated rats (FIG. 3)", "assay_type": "in vivo, rat", "experimental": "Desferrithiocin Analogue Induced Excretion of Uranium. In order to compare results with previous chelator-induced iron excretion data, the uranium clearance studies were carried out in a bile duct-cannulated rat model. The animals were given uranyl acetate dihydrate SC at a dose of 5 mg/kg (the actual dose of uranium is 2.8 mg/kg). Bile and urine samples were collected for 24 hours after dosing. Kidneys were removed from selected animals and tissue uranium concentration measured. At least three animals were utilized in each experimental group. Data from two separate control studies (uranyl acetate/ no chelator) have now been combined for a total of 14 control animals. All uranium concentrations were measured using ICPMS. The data are reported as the total quantity of uranium excreted [urine +bile]; the mode of excretion [urine/bile] is also given. In addition the percentage of the administered dose of uranium cleared and chelator-induced uranium excretion vs the controls is also given. Four positive controls were evaluated: DTPA (13, Table 1) given as its trisodium calcium salt, DFO (14), N,N′-bis(2hydroxybenzyl)ethylenediamine-N,N′-diacetic acid, monosodium salt (NaHBED, 15) and the hydroxypyridone CP94 (16) shown to bind uranium [Pashalidis, et al., Effective complex formation in the interaction of 1,2-dimethyl-3-hydroxypyrid-4-one (Deferiprone or L1) with uranium(VI), Journal of Radioanalytical and Nuclear Chemistry 1999; 242:181-184.] The total metal cleared after 24 h in control rats was 10% of the administered dose. When DTPA, 13, was given IP or PO at 300 μmol/kg immediately after uranium, the excretion was 17% and 8% of the administered dose respectively (p>0.05). However, when the drug was given IP at a dose of 600 μmol/kg immediately post-metal, the uranium excretion was significant, 20% (p<0.005). This is consistent with previously published data using a similar animal model.[Domingo, et al., Comparative effects of the chelators sodium 4,5-dihydroxybenzene-1,3-disulfonate (Tiron) and diethylenetriaminepentaacetic acid (DTPA) on acute uranium nephrotoxicity in rats, Toxicology 1997; 118:49-59] DFO (14) and CP94 (16) given IP immediately post uranyl acetate were ineffective.\nThe most promising analogue in the (S)-2-(2,4-dihydroxyphenyl)-4,5-dihydro-4-thiazolinecarboxylic series is the methoxy analogue (S)-4′-(CH3O)-DADMDFT (11). Given IP at 300 μmol/kg 0.5 h before uranyl acetate or immediately thereafter, nearly 30% of the metal was cleared (Table 1). This was also true if the drug was given IP 0.5 or 2 h post metal. The drug retains some efficacy given 4 h post uranium; 16% of the metal is excreted (p<0.006). When the chelator was given SC immediately post uranium, 40% of the administered metal was cleared. The increased excretion is probably associated with a slower absorption of the ligand. The data from rodents given the drug orally is even more encouraging (Table 1). […] The most profound data are associated with uranium decorporation from the kidneys (FIG. 3). When DTPA is given IP or PO at a dose of 300 μmol/kg immediately post metal, there is no reduction in renal uranium relative to controls. However, (S)-4′-(CH3O)-DADMDFT (11) given orally at a dose of 300 μmol/kg immediately post metal reduces renal uranium by 37% (p<0.005).\nThere is a small (16%) reduction when the drug is given PO at a dose of 300 μmol/kg 2 h post uranium. However, when 11 is given PO at a dose of 600 μmol/kg 0.5 h post metal, the renal uranium content is reduced by 76% (p<0.001). When given PO at the same dose 1 h post uranium exposure, the reduction is still significant, 42% (p<0.006). In all sets of ligands, the most lipophilic chelator is always the most toxic. […] On the basis of this finding, a less lipophilic, more water-soluble ligand than 12 was assembled, (S)-4′-(HO)-DADFT-PE (18, Table 1), a polyether analogue."}, "[9]": {"experiment": "GLP toxicity and pharmacokinetics profile (NIH Roadmap Program)", "assay_type": "in vivo", "excerpt": "7. This same ligand (11) has now been run through the NIH Roadmap Program and a complete GLP toxicity and pharmacokinetics profile is available."}},
  "note": "Read-outs that look alike come from different tables or passages of the source.",
  "data": [
    {"smiles": "COc1ccc(C2=N[C@@H](C(=O)O)CS2)c(O)c1OC", "note": "[drawing 26]", "values": [
      {"measurement": "Iron Clearing Efficiency (%)", "setting": "[1]", "value": "12.4 ± 6.2", "unit": "%"},
      {"measurement": "relative percentages of the iron excreted in the stool and urine", "setting": "[1]; [stool/urine]", "value": "94/6"}
    ]},
    {"smiles": "COCCOCCOCCOc1ccc(C2=N[C@@](C)(C(=O)O)CS2)c(O)c1", "note": "[Compound 18, (S)-4,5-dihydro-2-[2-hydroxy-4-(3,6,9-trioxadecyloxy)phenyl]-4methyl-4-thiazolecarboxylic acid]", "values": [
      {"measurement": "% of Administered Dose Cleared", "setting": "[2]; 300 μmol/kg IP Immediate", "value": 22, "unit": "%"},
      {"measurement": "iron-clearing efficiency, in words", "setting": "[3]; in both rodents and primates", "value": "highly efficient iron chelator"},
      {"measurement": "kidney concentration versus 10", "setting": "[4]; rodents", "value": "significantly lower concentrations in the kidney"},
      {"measurement": "liver concentration versus 10", "setting": "[4]; rodents", "value": "higher concentrations in the liver"},
      {"measurement": "tolerability versus 10", "setting": "[5]", "value": "more tolerable"}
    ]},
    {"smiles": "C[C@]1(C(=O)O)CSC(c2ncccc2O)=N1", "note": "[Compound 1, (S)-4,5-dihydro-2-(3-hydroxy-2-pyridinyl)-4methyl-4-thiazolecarboxylic acid, reference compound]", "values": [
      {"measurement": "ICE", "setting": "[3]; iron-overloaded C. apella primate", "value": 16, "unit": "%"},
      {"measurement": "ICE", "setting": "[6]", "value": 5.5, "unit": "%"},
      {"measurement": "toxicity, in words", "setting": "[7]", "value": "severely nephrotoxic"}
    ]},
    {"smiles": "COc1ccc(C2=N[C@@H](C(=O)O)CS2)c(O)c1", "note": "[Compound 11, (S)-2-(2-hydroxy-4-methoxyphenyl)-4,5dihydro-4-thiazolecarboxylic acid]", "values": [
      {"measurement": "% of Administered Dose Cleared", "setting": "[2]; 300 μmol/kg IP 0.5 h Post", "value": "~30", "unit": "%"},
      {"measurement": "% of Administered Dose Cleared", "setting": "[2]; 300 μmol/kg IP 0.5 h Post, listed as (S)-4′-(CH3O)-DADMDFT", "value": "~30", "unit": "%"},
      {"measurement": "% of Administered Dose Cleared", "setting": "[2]; 300 μmol/kg IP 0.5 h Pre", "value": "~30", "unit": "%"},
      {"measurement": "% of Administered Dose Cleared", "setting": "[2]; 300 μmol/kg IP 0.5 h Pre, listed as (S)-4′-(CH3O)-DADMDFT", "value": "~30", "unit": "%"},
      {"measurement": "% of Administered Dose Cleared", "setting": "[2]; 300 μmol/kg IP 2 h Post", "value": "~30", "unit": "%"},
      {"measurement": "% of Administered Dose Cleared", "setting": "[2]; 300 μmol/kg IP 4 h Post", "value": 16, "unit": "%"},
      {"measurement": "% of Administered Dose Cleared", "setting": "[2]; 300 μmol/kg IP Immediate", "value": "~30", "unit": "%"},
      {"measurement": "% of Administered Dose Cleared", "setting": "[2]; 300 μmol/kg PO 2 h Post", "value": 18, "unit": "%"},
      {"measurement": "% of Administered Dose Cleared", "setting": "[2]; 300 μmol/kg PO Immediate", "value": 23, "unit": "%"},
      {"measurement": "% of Administered Dose Cleared", "setting": "[2]; 300 μmol/kg SC Immediate", "value": 40, "unit": "%"},
      {"measurement": "% of Administered Dose Cleared", "setting": "[2]; 600 μmol/kg PO 0.5 h Post", "value": 25, "unit": "%"},
      {"measurement": "% of Administered Dose Cleared", "setting": "[2]; 600 μmol/kg PO 1 h Post", "value": 26, "unit": "%"},
      {"measurement": "reduction in renal uranium", "setting": "[8]; PO 300 μmol/kg 2 h post uranium", "value": 16, "unit": "%"},
      {"measurement": "reduction in renal uranium relative to controls", "setting": "[8]; PO 300 μmol/kg immediately post metal", "value": 37, "unit": "%"},
      {"measurement": "reduction in renal uranium content", "setting": "[8]; PO 600 μmol/kg 0.5 h post metal", "value": 76, "unit": "%"},
      {"measurement": "reduction in renal uranium content", "setting": "[8]; PO 600 μmol/kg 1 h post uranium exposure", "value": 42, "unit": "%"},
      {"measurement": "no-observed-adverse-effect-level", "setting": "[9]", "value": "well within the range of expected human dosing requirements"},
      {"measurement": "metabolite formed by metabolic O-demethylation", "setting": "[4]; in vivo", "value": "(S)-4′-(HO)-DADMDFT (9)"}
    ]}
  ]
}
